According to ChEMBL document CHEMBL5247656, “Discovery of a Potent, Cooperative, and Selective SOS1 PROTAC ZZ151 with In Vivo Antitumor Efficacy in KRAS-Mutant Cancers” (J Med Chem, 2023):
Active and inactive are the calls of the source. No cut-off for these calls is given here.

Tests used:
[1] = target: T1, von Hippel-Lindau disease tumor suppressor/Son of sevenless homolog 1 (Homo sapiens) (UniProt Q07889+P40337); experiment: PROTAC activity at VHL/SOS1 in human UMUC3 cells harboring KRAS G12C mutant assessed as induction of SOS1 degradation by measuring maximal efficacy at 1 to 2000 nM incubated for 24 hrs by Immunoblot analysis relative to control; type: cell-based; settings: dose 1-2000 nM
T1 sequence (P40337 whole entry, looked up, one chain of several): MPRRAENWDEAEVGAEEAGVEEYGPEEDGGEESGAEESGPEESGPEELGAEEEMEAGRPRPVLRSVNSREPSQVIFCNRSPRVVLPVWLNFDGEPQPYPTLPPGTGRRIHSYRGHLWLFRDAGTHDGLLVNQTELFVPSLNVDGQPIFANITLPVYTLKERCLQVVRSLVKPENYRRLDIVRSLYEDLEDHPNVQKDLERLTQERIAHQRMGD

[2] = target: T2, Son of sevenless homolog 1 (Homo sapiens) (UniProt Q07889); experiment: Induction of SOS1 degradation in human ASPC1 cells at 1 uM incubated for 6 hrs by quantitative proteomics analysis; type: cell-based
T2 sequence (whole entry): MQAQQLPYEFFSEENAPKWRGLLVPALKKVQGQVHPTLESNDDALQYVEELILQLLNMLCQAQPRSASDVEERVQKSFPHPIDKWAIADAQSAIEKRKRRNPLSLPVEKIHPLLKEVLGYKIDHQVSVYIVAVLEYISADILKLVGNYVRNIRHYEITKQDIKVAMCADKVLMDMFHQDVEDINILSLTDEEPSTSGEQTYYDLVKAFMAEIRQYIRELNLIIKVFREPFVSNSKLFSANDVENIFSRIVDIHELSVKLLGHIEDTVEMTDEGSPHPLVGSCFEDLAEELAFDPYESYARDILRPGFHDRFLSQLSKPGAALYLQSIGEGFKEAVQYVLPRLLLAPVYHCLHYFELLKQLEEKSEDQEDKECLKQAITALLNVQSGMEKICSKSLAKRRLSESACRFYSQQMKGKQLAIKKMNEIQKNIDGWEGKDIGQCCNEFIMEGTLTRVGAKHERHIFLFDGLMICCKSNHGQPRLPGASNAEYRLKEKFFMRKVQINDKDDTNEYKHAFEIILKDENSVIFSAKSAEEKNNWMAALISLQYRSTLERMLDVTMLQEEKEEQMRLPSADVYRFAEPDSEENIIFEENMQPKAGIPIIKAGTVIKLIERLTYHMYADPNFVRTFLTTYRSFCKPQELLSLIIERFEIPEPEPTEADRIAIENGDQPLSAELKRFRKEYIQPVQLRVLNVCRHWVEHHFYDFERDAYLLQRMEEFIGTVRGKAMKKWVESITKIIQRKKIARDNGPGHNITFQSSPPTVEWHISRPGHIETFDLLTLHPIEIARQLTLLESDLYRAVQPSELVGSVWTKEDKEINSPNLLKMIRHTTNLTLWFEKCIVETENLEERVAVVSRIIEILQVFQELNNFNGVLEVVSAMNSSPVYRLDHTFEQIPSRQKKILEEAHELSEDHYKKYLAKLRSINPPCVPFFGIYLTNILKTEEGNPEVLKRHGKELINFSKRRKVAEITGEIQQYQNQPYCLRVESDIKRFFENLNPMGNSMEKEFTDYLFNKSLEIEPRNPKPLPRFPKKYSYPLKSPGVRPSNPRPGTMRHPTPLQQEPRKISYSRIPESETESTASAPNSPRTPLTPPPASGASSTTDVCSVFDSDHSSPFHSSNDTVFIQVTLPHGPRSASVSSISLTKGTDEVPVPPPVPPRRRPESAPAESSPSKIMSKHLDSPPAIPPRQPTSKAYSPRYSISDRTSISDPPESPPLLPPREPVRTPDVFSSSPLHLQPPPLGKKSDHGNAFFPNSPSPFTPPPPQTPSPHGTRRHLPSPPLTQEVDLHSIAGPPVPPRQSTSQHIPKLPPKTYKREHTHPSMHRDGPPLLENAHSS

[3] = test system: PANC-1; experiment: Antiproliferative activity against human PANC-1 cells harboring KRAS G12D mutant assessed as inhibition of cell proliferation incubated for 7 days by CellTiterGlo-3D proliferation assay; type: functional, cell-based; settings: PANC-1, 168 h
[4] = test system: SW-620; experiment: Antiproliferative activity against human SW620 cells harboring KRAS G12V mutant assessed as inhibition of cell proliferation incubated for 7 days by CellTiterGlo-3D proliferation assay; type: functional, cell-based; settings: SW-620, 168 h
[5] = target: T1, von Hippel-Lindau disease tumor suppressor/Son of sevenless homolog 1 (Homo sapiens); experiment: PROTAC activity at VHL/SOS1 in human SK-CO-1 cells harboring G12V mutant assessed as induction of SOS1 degradation by measuring maximal efficacy at 1 to 2000 nM incubated for 24 hrs by Immunoblot analysis relative to control; type: cell-based; settings: dose 1-2000 nM
[6] = target: T3, Son of sevenless homolog 1 (Homo sapiens, UniProt Q07889); experiment: Binding affinity to GST-tagged human SOS1 (564 to 1049 residues) expressed in Escherichia coli BL21 (DE3) cells assessed as ternary complex formation by measuring dissociation constant incubated for 15 mins in the presence of 6His tagged human VCB by fluorescence polarization-based displacement assay
T3 sequence (Q07889 whole entry): T2 sequence (whole entry)

[7] = target: T1, von Hippel-Lindau disease tumor suppressor/Son of sevenless homolog 1 (Homo sapiens); experiment: PROTAC activity at VHL/SOS1 in human NCI-H358 cells harboring KRAS G12C mutant with shRNA lentivirus mediated VHL knockdown assessed as induction of SOS1 degradation at 1 uM incubated for 24 hrs by Immunoblot analysis; type: cell-based
[8] = target: T1, von Hippel-Lindau disease tumor suppressor/Son of sevenless homolog 1 (Homo sapiens); experiment: PROTAC activity at VHL/SOS1 in human A549 cells harboring KRAS G12S mutant assessed as induction of SOS1 degradation at 1 uM incubated for 2 to 4 hrs by Immunoblot analysis; type: cell-based; settings: time 2-4 hrs
[9] = Acute toxicity in BALB/c mouse assessed as body weight loss at 12.5 to 100 mg/kg, ip administered once daily for 7 days; type: organism-based; settings: in vivo, 168 h, dose 12.5-100 mg/kg, time 7 day
[10] = target: T3, Son of sevenless homolog 1; experiment: Binding affinity to GST-tagged human SOS1 (564 to 1049 residues) expressed in Escherichia coli BL21 (DE3) cells assessed as binary complex formation by measuring dissociation constant incubated for 15 mins by fluorescence polarization-based displacement assay
[11] = AUC in BALB/c mouse at 10 mg/kg, ip measured upto 24 hrs by LC-MS/MS analysis; type: ADME, organism-based; parameters: time < 24 hrs, dose 10 mg/kg, route ip; settings: in vivo
[12] = target: T1, von Hippel-Lindau disease tumor suppressor/Son of sevenless homolog 1 (Homo sapiens); experiment: In vivo PROTAC activity at VHL/SOS1 in human SW620 cells harboring KRAS G12V mutant xenografted BALB/c nude mouse assessed as induction of SOS1 degradation in tumor at 10 to 20 mg/kg, ip administered once daily for 2 weeks by immunohistochemistry analysis; type: functional, organism-based; settings: SW-620, dose 10-20 mg/kg
[13] = test system: SW-620; experiment: Antitumor activity against human SW620 cells harboring KRAS G12V mutant xenografted in BALB/c nude mouse assessed as tumor growth inhibition at 10 mg/kg, ip administered once daily for 2 weeks relative to control; type: functional; settings: SW-620, 336 h, read-out: TGI
[14] = target: T1, von Hippel-Lindau disease tumor suppressor/Son of sevenless homolog 1 (Homo sapiens); experiment: In vivo PROTAC activity at VHL/SOS1 in human ASPC1 cells harboring KRAS G12D mutant xenografted BALB/c nude mouse assessed as decrease in phosphorylated ERK expression at 10 to 20 mg/kg, ip administered once daily for 3 weeks by immunohistochemistry analysis; type: functional, organism-based; settings: dose 10-20 mg/kg
[15] = target: T1, von Hippel-Lindau disease tumor suppressor/Son of sevenless homolog 1 (Homo sapiens); experiment: PROTAC activity at VHL/SOS1 in human MIA PaCa-2 cells harboring KRAS G12C mutant assessed as induction of SOS1 degradation by measuring maximal efficacy at 1 to 2000 nM incubated for 24 hrs by Immunoblot analysis relative to control; type: cell-based; settings: dose 1-2000 nM
[16] = target: T1, von Hippel-Lindau disease tumor suppressor/Son of sevenless homolog 1 (Homo sapiens); experiment: PROTAC activity at VHL/SOS1 in human NCI-H358 cells harboring KRAS G12C mutant assessed as induction of SOS1 degradation at 1 uM preincubated with MG132 for 4 hrs followed by compound treatment and measured after 24 hrs by Immunoblot analysis; type: cell-based

In the case of COc1cc2nc(C)nc(N[C@H](C)c3cc(N)cc(C(F)(F)F)c3)c2cc1C1CCN(C(=O)CCCCCC(=O)N[C@H](C(=O)N2C[C@H](O)C[C@H]2C(=O)N[C@@H](C)c2ccc(-c3scnc3C)cc2)C(C)(C)C)CC1, the Emax [1] is reported as over 95%, the Activity [2] is reported as “Active” and the IC50 [3] is reported as 13.8 nM. For the same molecule, the IC50 [4] was 18.5 nM, the Emax [5] was over 95% and the Kd [6] was 8.13 nM. For the same molecule, the Activity [7] was “inactive”, the Activity [8] was “Active” and the Activity [9] was “Non-Toxic”. For the same molecule, the Kd [10] was 93 nM, the AUC at 24 h [11] was 14100 ng·h/mL and the Activity [12] was “Active”. For the same molecule, the inhibition in vivo at 10 mg/kg [13] was 46.5%, the Activity [14] was “Active” and the Emax [15] was over 95%. For the same molecule, the Activity [16] was “inactive”.
